We go through 23 compounds from patent US8163793B2, “Proline derivatives” (Hoffman-La Roche Inc., priority 2009, dated 2012).

Usually IC50 stands for the concentration needed to halve the response being measured.

Structures are written as SMILES. Where a name gives a salt, the structure may show the parent alone. Some results are limits rather than exact numbers.

One experiment deals with Cat L (UniProt P07711). The experiment in a line: Cathepsin enzyme inhibition assay (fluorogenic peptide substrate Z-Val-Val-Arg-AMC), Cathepsin L. It is filed as biochemical, human and mouse. Conditions: enzyme 1 nM, substrate 20 μM, pH 6.5; read-out: CatL IC50. The essentials: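 Fluorogenic cleavage of Z-Val-Val-Arg-AMC (20 μM) by 1 nM Cat L was monitored at ex 360/em 465 nm for 20 min, the linear phase. The buffer was 100 mM potassium phosphate pH 6.5 with 5 mM EDTA and DTT. IC50 values were derived by standard methods, in μM.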

Another experiment concerns the target Cathepsin S (UniProt P25774). The experiment in a line: Cathepsin enzyme inhibition assay (fluorogenic peptide substrate Z-Val-Val-Arg-AMC), Cathepsin S. The class given is biochemical, human and mouse. Conditions: enzyme 1 nM, substrate 20 μM, pH 6.5; read-out: CatS IC50. The essentials:
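Compounds were combined with 1 nM human or mouse enzyme, and substrate then started the reaction. The buffer was potassium phosphate (100 mM, pH 6.5) containing EDTA-Na 5 mM, Triton X-100 0.001% and […] 5 mM.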

As to `Cc1cc(N2C[C@H](S(=O)(=O)c3ccc(N4CCN(C)CC4)cc3Cl)C[C@H]2C(=O)NC2(C#N)CC2)n(C2CCC2)n1` [Example 401, (2S,4R)-4-[2-Chloro-4-(4-methyl-piperazin-1-yl)-benzenesulfonyl]-1-(2-cyclobutyl-5-methyl-2H-pyrazol-3-yl)-pyrrolidine-2-carboxylic acid (1-cyano-cyclopropyl)-amide], the results for the IC50 on Cat L and on Cathepsin S were 1080 nM and 0.46 nM, respectively.

As for `N#CC1(NC(=O)[C@@H]2C[C@@H](S(=O)(=O)CC3CC3)CN2C(=O)C2(C(F)(F)F)CC2)CC1` [Example 423, (2S,4R)-4-Cyclopropylmethanesulfonyl-1-(1-trifluoromethyl-cyclopropanecarbonyl)-pyrrolidine-2-carboxylic acid (1-cyano-cyclopropyl)-amide], the IC50 at Cat L was ≥ 25000 nM; on Cathepsin S, 1470 nM.

`C[C@H](Oc1ccc(S(=O)(=O)[C@@H]2C[C@@H](C(=O)NC3(C#N)CC3)N(C(=O)C3(c4ccc(Cl)nc4)CC3)C2)c(Cl)c1)C(F)(F)F` [Example 381, (2S,4R)-1-[1-(6-Chloro-pyridin-3-yl)-cyclopropanecarbonyl]-4-[2-chloro-4-((S)-2,2,2-trifluoro-1-methyl-ethoxy)-benzenesulfonyl]-pyrrolidine-2-carboxylic acid (1-cyano-cyclopropyl)-amide]: the IC50 was determined as 102 nM at Cat L and 0.295 nM on Cathepsin S.

Regarding `CC(C)(C)OC(=O)N1C[C@H](S(=O)(=O)c2ccccc2Cl)C[C@H]1C(=O)NC(C)(C#N)c1ccccc1` (stereo partly drawn) [Example 37, (2S,4R)-4-(2-Chloro-benzenesulfonyl)-2-[(cyano-methyl-phenyl-methyl)-carbamoyl]-pyrrolidine-1-carboxylic acid tert-butyl ester], the IC50 was ≥ 25000 nM on Cat L and 1030 nM on Cathepsin S.

Turning to `N#CC1(NC(=O)[C@@H]2C[C@@H](S(=O)(=O)c3ccc(-n4ccnc4)cc3)CN2)CC1` [Example 14, (2S,4R)-4-(4-Imidazol-1-yl-benzenesulfonyl)-pyrrolidine-2-carboxylic acid (1-cyano-cyclopropyl)-amide Hydrochloride], the IC50 on Cat L is ≥ 25000 nM; at Cathepsin S it was 3.2 nM.

On to `CC(C)C(=O)N1C[C@H](S(=O)(=O)c2ccc(OCC(F)(F)F)cc2Cl)C[C@H]1C(=O)NC1(C#N)CC1` [Example 179, (2S,4R)-4-[2-Chloro-4-(2,2,2-trifluoro-ethoxy)-benzenesulfonyl]-1-isobutyryl-pyrrolidine-2-carboxylic acid (1-cyano-cyclopropyl)-amide], for which the IC50 stood at 17600 nM on Cat L and 0.42 nM on Cathepsin S.

Regarding `N#CCNC(=O)[C@@H]1C[C@@H](S(=O)(=O)c2ccccc2)CN1CC1CCCCC1` [Example 55, (2S,4R)-4-Benzenesulfonyl-1-cyclohexylmethyl-pyrrolidine-2-carboxylic acid cyanomethyl-amide], the IC50 at Cat L is ≥ 25000 nM; at Cathepsin S, 14.8 nM.

On to `N#CC1(NC(=O)[C@@H]2C[C@@H](S(=O)(=O)c3ccccc3C(F)(F)F)CN2C=O)CC1` [Example 100, (2S,4R)-1-Formyl-4-(2-trifluoromethyl-benzenesulfonyl)-pyrrolidine-2-carboxylic acid (1-cyano-cyclopropyl)-amide], for which the IC50 was ≥ 25000 nM on Cat L and 7.7 nM on Cathepsin S.

With `CC(C)OC(=O)N1C[C@H](S(=O)(=O)c2ccccc2Cl)C[C@H]1C(=O)NC1(C#N)CC1` [Example 97, (2S,4R)-4-(2-Chloro-benzenesulfonyl)-2-(1-cyano-cyclopropylcarbamoyl)-pyrrolidine-1-carboxylic acid Isopropyl Ester], the IC50 came out at 22800 nM on Cat L and 2.4 nM at Cathepsin S.

For `COc1ccc(N2C[C@H](S(=O)(=O)c3ccccc3C(F)(F)F)C[C@H]2C(=O)NC2(C#N)CC2)cc1` [Example 160, (2S,4R)-1-(4-Methoxy-phenyl)-4-(2-trifluoromethyl-benzenesulfonyl)-pyrrolidine-2-carboxylic Acid (1-cyano-cyclopropyl)-amide], the values for the half-inhibitory concentration (IC50) at Cat L and on Cathepsin S were ≥ 25000 nM and 6 nM, respectively.

As to `CC(CN1C[C@H](S(=O)(=O)c2ccccc2Cl)C[C@H]1C(=O)NC1(C#N)CC1)C(F)(F)F` (stereo partly drawn) [Example 90, (2S,4R)-4-(2-Chloro-benzenesulfonyl)-1-(3,3,3-trifluoro-2-methyl-propyl)-pyrrolidine-2-carboxylic acid (1-cyano-cyclopropyl)-amide], the IC50 at Cat L was ≥ 25000 nM; on Cathepsin S, 84.5 nM.

With `N#CC1(NC(=O)[C@H]2C[C@@H](S(=O)(=O)c3ccc(Cl)cc3Cl)CN2c2ncccc2C(F)(F)F)CC1` [Example 189, (2R,4R)-4-(2,4-Dichloro-benzenesulfonyl)-1-(3-trifluoromethyl-pyridin-2-yl)-pyrrolidine-2-carboxylic acid (1-cyano-cyclopropyl)-amide], the IC50 was ≥ 25000 nM on Cat L and 665 nM on Cathepsin S.

Consider `CC(C)(C)C(=O)N1C[C@H](S(=O)(=O)c2ccc(F)cc2C(F)(F)F)C[C@H]1C(=O)NC1(C#N)CC1` [Example 210, (2S,4R)-1-(2,2-Dimethyl-propionyl)-4-(4-fluoro-2-trifluoromethyl-benzenesulfonyl)-pyrrolidine-2-carboxylic acid (1-cyano-cyclopropyl)-amide], for which the results for the IC50 at Cat L and at Cathepsin S were ≥ 25000 nM and 0.4 nM, respectively.

Regarding `CC(C)C(=O)N1C[C@H](S(=O)(=O)c2ccccc2Cl)C[C@H]1C(=O)NC1(C#N)CC1` [Example 218, (2S,4R)-4-(2-Chloro-benzenesulfonyl)-1-isobutyryl-pyrrolidine-2-carboxylic acid (1-cyano-cyclopropyl)-amide], the IC50 stood at 14600 nM on Cat L and 0.4 nM at Cathepsin S.

As to `COc1cccc(-n2nc(C)cc2N2C[C@H](S(=O)(=O)c3ccccc3C(F)(F)F)C[C@H]2C(=O)NC2(C#N)CC2)c1` [Example 333, (2S,4R)-1-[2-(3-Methoxy-phenyl)-5-methyl-2H-pyrazol-3-yl]-4-(2-trifluoromethyl-benzenesulfonyl)-pyrrolidine-2-carboxylic acid (1-cyano-cyclopropyl)-amide], the IC50 on Cat L worked out at 7980 nM; on Cathepsin S it was 1.9 nM.

On to `N#CC1(NC(=O)[C@@H]2C[C@@H](S(=O)(=O)c3ccccc3Cl)CN2)CCCCC1` [Example 46, (2S,4R)-4-(2-Chloro-benzenesulfonyl)-pyrrolidine-2-carboxylic acid (1-cyano-cyclohexyl)-amide Hydrochloride], for which the IC50 was ≥ 25000 nM on Cat L and 208 nM on Cathepsin S.

For `CC(C)(C)N1CCN(c2ccc(S(=O)(=O)[C@@H]3C[C@@H](C(=O)NC4(C#N)CC4)N(C(=O)C4(c5ccc(Cl)nc5)CC4)C3)c(Cl)c2)CC1` [Example 371, (2S,4R)-4-[4-(4-tert-Butyl-piperazin-1-yl)-2-chloro-benzenesulfonyl]-1-[1-(6-chloro-pyridin-3-yl)-cyclopropanecarbonyl]-pyrrolidine-2-carboxylic acid (1-cyano-cyclopropyl)-amide; Compound with Formic Acid], the results for the IC50 at Cat L and on Cathepsin S were 26.3 nM and 0.08 nM, respectively.

Consider `Cc1cc(N2C[C@H](S(=O)(=O)c3ccccc3Cl)C[C@H]2C(=O)NC2(C#N)CC2)n(C2CCOCC2)n1` [Example 478, (2S,4R)-4-(2-Chloro-benzenesulfonyl)-1-[5-methyl-2-(tetrahydro-pyran-4-yl)-2H-pyrazol-3-yl]-pyrrolidine-2-carboxylic acid (1-cyano-cyclopropyl)-amide], for which the IC50 on Cat L was determined as 3670 nM; on Cathepsin S, 3.1 nM.

Turning to `Cc1cc(Cl)ccc1S(=O)(=O)[C@H]1CN[C@H](C(=O)NC2(C#N)CC2)C1` [Example 50, (2S,4R)-4-(4-Chloro-2-methyl-benzenesulfonyl)-pyrrolidine-2-carboxylic acid (1-cyano-cyclopropyl)-amide Hydrochloride], the IC50 is 8770 nM at Cat L and 4.4 nM on Cathepsin S.

`N#CC1(NC(=O)[C@@H]2C[C@@H](S(=O)(=O)c3ccc(N4CCOCC4)cc3C(F)(F)F)CN2)CC1` [Example 29, (2S,4R)-4-(4-Morpholin-4-yl-2-trifluoromethyl-benzenesulfonyl)-pyrrolidine-2-carboxylic acid (1-cyano-cyclopropyl)-amide hydrochloride]: the results for the IC50 at Cat L and at Cathepsin S were 39900 nM and 0.8 nM, respectively.

On to `N#CCNC(=O)[C@@H]1C[C@@H](S(=O)(=O)c2ccccc2)CN1C(=O)c1ccccc1` [Example 52, (2S,4R)-4-Benzenesulfonyl-1-benzoyl-pyrrolidine-2-carboxylic acid cyanomethyl-amide], for which the IC50 on Cat L was ≥ 25000 nM; at Cathepsin S, 14 nM.

In the case of `CC1(C(=O)N2C[C@H](S(=O)(=O)c3ccc(-c4ccnc(Cl)c4)cc3C(F)(F)F)C[C@H]2C(=O)NC2(C#N)CC2)CC1` [Example 258, (2S,4R)-4-[4-(2-Chloro-pyridin-4-yl)-2-trifluoromethyl-benzenesulfonyl]-1-(1-methyl-cyclopropanecarbonyl)-pyrrolidine-2-carboxylic acid (1-cyano-cyclopropyl)-amide], the IC50 on Cat L worked out at 58000 nM; at Cathepsin S it was 0.19 nM.

For the compound `N#CCNC(=O)[C@@H]1C[C@@H](S(=O)(=O)c2ccccc2Cl)CN1C(=O)c1ccccc1` [Example 58, (2S,4R)-1-Benzoyl-4-(2-chloro-benzenesulfonyl)-pyrrolidine-2-carboxylic acid cyanomethyl-amide], the IC50 stood at 27400 nM on Cat L and 1.6 nM on Cathepsin S.
